Reference: patent publication US12702656B2, “ALA and salt formulation” (Molecular Product Management LLC, priority 2016, dated 2026)

Columns and labels:
[1] = cited from earlier work
[2] = Oral dissolve acceptability / ALA burn of ALA lozenges and tablets in users; settings: salt added to, or salt form used in, oral dissolve ALA formulation
Procedure: These tablets are circular, 9 mm in diameter, approximately 5 mm thick, having a weight of approximately 0.35 g and dissolution times of about 3.5 minutes.
Such NaCl-tablet and Non-Salt-tablet formulations being referred to as “NaCl-formulations” and “Non-Salt-formulation” respectively.
One way to specify or measure the difference resulting from the addition of any organic or inorganic salt (such as NaCl) to a formulation, is to measure the degree to which the Salt-formulation has less of an ALA burn than the Non-Salt-formulation when dissolved in the mouth.

[3] = antacid taken with ALA taken orally (ingested); found by some individuals
Source text: Some of the ALA in the saliva is swallowed during oral dissolve administration, therefore the esophagus and stomach encounter some ALA and may be irritated by it, particularly in humans and non-human species with sensitive stomachs.

Compound	reduction of ALA burn (burning sensation in the mouth) [2]	further results
O=C(O)CCCCC1CCSS1 (stereo not drawn) [ALA, Alpha-lipoic acid]		pKa [1]: 4.7
[Cl-].[Na+] [NaCl, sodium chloride]	reduces the ALA burn during oral dissolution	
O=C([O-])CCCC[C@@H]1CCSS1.[Na+] [Na—R-ALA]	further reduction of the ALA burning and/or rawness problems	
O=C([O-])[O-].[Ca+2] [calcium carbonate]		stomach irritation [3]: reduces this stomach irritation
